Laboratory results as given in ChEMBL document CHEMBL6078626, “Recent advancements in the structural exploration of TGR5 agonists for diabetes treatment” (RSC Med Chem, 2024).

Columns and labels:
[1] = target: T1, G-protein coupled bile acid receptor 1 (Homo sapiens, UniProt Q8TDU6); experiment: Agonist activity at TGR5 (unknown origin) expressed in HEK293T cells assessed as cAMP level by TR-FRET analysis; assay type: functional, cell-based
T1 sequence (Q8TDU6 whole entry): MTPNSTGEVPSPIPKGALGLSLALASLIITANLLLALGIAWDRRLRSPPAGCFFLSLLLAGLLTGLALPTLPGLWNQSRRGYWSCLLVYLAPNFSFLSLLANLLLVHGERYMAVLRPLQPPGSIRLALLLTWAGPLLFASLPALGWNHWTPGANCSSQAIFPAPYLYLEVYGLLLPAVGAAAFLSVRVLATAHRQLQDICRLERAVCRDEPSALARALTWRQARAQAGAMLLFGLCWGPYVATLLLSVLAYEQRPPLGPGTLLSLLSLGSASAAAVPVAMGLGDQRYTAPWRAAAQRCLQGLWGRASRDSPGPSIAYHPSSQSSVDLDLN

[2] = target: T1, G-protein coupled bile acid receptor 1; experiment: Agonist activity at human TGR5 expressed in HEK293 cells; assay type: functional, cell-based
[3] = target: T1, G-protein coupled bile acid receptor 1; experiment: Agonist activity at TGR5 (unknown origin) by TR-FRET assay; assay type: functional
[4] = target: T1, G-protein coupled bile acid receptor 1; experiment: Agonist activity at human TGR5; assay type: functional

EC50 [3] [nM]	Compound	also measured
	COc1ccc(C(C)(C)c2cn(-c3ccc(F)cc3)c(SCc3c(F)cccc3Cl)n2)cc1OC	EC50 [1]: 25 nM
	Fc1cccc(F)c1-c1ccncc1CN1C(c2ccco2)=NOC1c1cc(C(F)(F)F)cc(C(F)(F)F)c1Cl (configuration not stated)	EC50 [2]: 15 nM
10	O=C(c1cccnc1Oc1cc(Cl)ccc1Cl)N1CCN(C2CC2)c2ccccc21	
50	O=C(c1cccnc1Oc1cc(Cl)ccc1Cl)N1CCCc2cc(F)c(F)cc21	
20	O=C(c1cccnc1Oc1cc(Cl)ccc1Cl)N1CCCc2cc(F)ccc21	
50	O=C(c1cccnc1Oc1cc(Cl)ccc1Cl)N1CCCc2ccc(F)cc21	
	COc1ccc(S(=O)(=O)N2CCN(S(=O)(=O)c3ccc(OC)c(OC)c3)CC2)cc1OC	EC50 [4]: 1300 nM
